The values that follow come from patent US11154548B2, “Monosubstituted or polysubstituted amphiphilic hypocrellin derivative, and preparation method and application thereof” (Technical Institute of Physics and Chemistry of the Chinese …, priority 2015, dated 2021).

Common to all, as to format: cell-based
In data set [1] the test system is Hela cells. In words: Phototoxicity experiment, 808 nm laser, MTT assay. Particulars: 300 nM, 20 mW/cm^2, 20 min, FIG. 18b. (Tetrazolium dyes change colour on reduction, which living cells bring about.)
Data set [2] concerns Hela cells. In words: Phototoxicity experiment, 671 nm laser, MTT assay. Particulars: 200 nM, 50 mW/cm^2, 20 min, FIG. 16b. As to the method: Phototoxicity experiment: Hela cells were incubated together with different concentrations of the compound I-1, the HB and the Ce6 respectively, further incubated in an incubator with a 5% CO2 environment at 37° C. for another 1 hour. After laser irradiation with a power density of 50 mW/cm^2 at a wavelength of 671 nm for 20 min, the Hela cells were further cultured and incubated in an incubator with a 5% CO2 environment at 37° C. for another 24 h. The survival rate of cells in each group was detected by MTT assay.

The subject of data set [3] is Hela cells. The experiment in a line: Cell phototoxicity experiment, 635 nm laser, MTT assay. Conditions: for Hela cells killed: 160 nM, exposed to red light (635 nm, 20 mW/cm^2, 1000 S), FIG. 10b. The method, then:
(§1) Cultured Hela cells were digested and percussed with 0.25% trypsin, made into a single cell suspension, adjusted to a cell count of about 2×10^4/mL, inoculated into a 96-well culture plate with 200 uL/well, and cultured in an incubator with a 5% CO2 environment at 37° C. After cells were adherent, the supernatant culture solution was discarded, different concentrations of photosensitizers (hematoporphyrin derivative HpD, HB, and hypocrellin derivative HB-1) were added strictly in dark according to the experiment design, and further incubated in an incubator with a 5% CO2 environment at 37° C. for another 1 h. Then the 96-well culture plate was perpendicularly irradiated with uniform semiconductor laser beam at a wavelength of 635 nm with the power density adjusted to 20 mW/cm^2 for 1000 S. At the same time, a blank group was arranged for each 96-well culture plate, and 6 wells were arranged for each condition. After irradiation, the culture plate was further incubated in an incubator with a 5% CO2 environment at 37° C. for another 24 h, and then the cell survival rate was detected. The survival rate of cells was detected by MTT assay. 20 uL of MTT (prepared with PBS, concentration: 5 mg/mL) was added to each well, and further incubated in an incubator with a 5% CO2 environment at 37° C. for another 4 h. Then the incubation was terminated. The supernatant was carefully pipetted from the wells and discarded, and then 150 uL of dimethyl sulfoxide (DMSO) was added to each well. The violet crystal was fully dissolved by vibration with a microvibrator for 10 min. The optical density value (OD value) of each well was detected by an ELIASA at 570 nm wavelength to calculate the cell survival rate according to the following formula: cell survival rate=OD value of the experimental group/OD value of the blank group×100%.

Data set [4] relates to Hela cells. In words: Dark cytotoxicity experiment, MTT assay. Conditions: in dark. The method, then:
as §1, with “and further incubated in an incubator with a 5% CO2 environment at 37° C. for another 1 h. Then the 96-well culture plate was perpendicularly irradiated with uniform semiconductor laser beam at a wavelength of 635 nm with the power density adjusted to 20 mW/cm^2 for 1000 S. At the same time, a blank group was arranged for each 96-well culture plate, and 6 wells were arranged for each condition. After irradiation, the culture plate was further incubated in an incubator with a 5% CO2 environment at 37° C. for another 24 h, and then the cell survival rate was detected.” left out

Data set [5] deals with Hela cells. In words: Dark toxicity experiment of polysubstituted derivatives, MTT assay. Particulars: in dark; for cytotoxicity (dark toxicity): Hela cells, FIG. 16a / FIG. 18a. The method, then:
Dark toxicity experiment: Hela cells at a certain concentration were inoculated into a 96-well plate, and cultured for 12-24 h. […] […] The survival rate of cells in each group was detected by MTT assay.
Dark toxicity experiment: Hela cells at a certain concentration were inoculated into a 96-well plate, and cultured for 12-24 h. […] […] The survival rate of cells in each group was detected by MTT assay. […] After laser irradiation with a power density of 20 mW/cm^2 at a wavelength of 808 nm for 20 min, the Hela cells were further cultured and incubated in an incubator with a 5% CO2 environment at 37° C. for another 24 h. The survival rate of cells in each group was detected by MTT assay.

“Also recorded” adds a separate entry of the source.

Consider `C=Cc1c(C)c2cc3nc(c(CC(=O)O)c4[nH]c(cc5nc(cc1[nH]2)C(C)=C5CC)c(C)c4C(=O)O)[C@@H](CCC(=O)O)[C@@H]3C` [Ce6, dihydroporphin Ce6, reference compound], for which the Hela cells killed entry in data set [1] is listed as “about 20%”; in data set [2], “about 30%”.
As to `COc1c(O)c2c(=O)cc(OC)c3c4c(OC)cc(=O)c5c(O)c(NCCOCCO)c6c(c(c1C(/C(C)=N/CCOCCO)C(C)=C6)c23)c54` (stereo not drawn) [HB-1], the Hela cells killed entry in data set [3] was “more than 90%”. In addition, the “death of Hela cells after incubation with the photosensitizer” value in data set [4] (10 uM, half an hour) was “significant death of the Hela cells are not seen”. Further, in data set [4] (Hela cells, FIG. 10a / FIG. 11a), the “cytotoxicity (dark toxicity)” value is listed as “low cytotoxicity”.
For `CCCCNc1c(O)c2c3c(c(OC)c4c5c6c(c(O)c(OC)c7c6c(c1C=C(C)C7C(C)=O)c42)C(=O)C=C5OC)SCCN=3` (stereo not drawn) [I-1], the “death of Hela cells after incubation with the photosensitizer” value in data set [5] (10 uM, half an hour) was “significant death of the Hela cells are not seen”. In addition, the “cytotoxicity (dark toxicity)” value in data set [5] is “very low cytotoxicity; also recorded: low cytotoxicity”. In data set [2], the Hela cells killed entry is recorded as “more than 90%”.
For the compound `COC1=CC(=O)c2c(O)c(OC)c3c4c2c1c1c(OC)c2c(c5c6c(c(c4c15)C=C(C)C3C(C)=O)NCCN6)=NC(C(=O)O)CS2` (stereo not drawn) [II-2], the “cytotoxicity (dark toxicity)” value in data set [5] is reported as “very low cytotoxicity”.
Turning to hematoporphyrin derivative [HpD], the Hela cells killed entry in data set [3] was “about 20%”.
hypocrellin B [HB]: the Hela cells killed entry in data set [3] was “about 20%”. Further, in data set [3] (Hela cells, compared with HB and HpD, FIG. 10-14), the “phototoxicity / photodynamic effect, in words” value is reported as “much poorer ability to photodynamically kill tumor cells”.
